Read-outs that look alike come from different tables or passages of the source. Starred links: 1 amine or outer side, 2 acyl side, 3 side chain; linkers in the order of their positions; H or OH if unused. Non-standard residues stand in square brackets, D forms with d. Residues, ends and D or L forms follow the SMILES beside them. Groups on a side chain read outwards from the residue. *: point of attachment. C20 diacid = O=C(O)CCCCCCCCCCCCCCCCCCC(=O)*; γGlu = O=C(O)[C@H](CCC(=O)[*:2])N[*:1]; NMeI = CC[C@H](C)[C@H](NC)C(=O)O; Nle = CCCC[C@H](N)C(=O)O; AEEA = NCCOCCOCC(=O)O; Aib = CC(C)(N)C(=O)O
Key:
[1] = molecular target: T1, hCRHR2 (Homo sapiens, UniProt Q13324); assay: HTRF cAMP assay, determination of hCRHR2 potency (peptide libraries 5 conc., purified peptides 11 conc.); type: cell-based
T1 sequence (Q13324 1-411): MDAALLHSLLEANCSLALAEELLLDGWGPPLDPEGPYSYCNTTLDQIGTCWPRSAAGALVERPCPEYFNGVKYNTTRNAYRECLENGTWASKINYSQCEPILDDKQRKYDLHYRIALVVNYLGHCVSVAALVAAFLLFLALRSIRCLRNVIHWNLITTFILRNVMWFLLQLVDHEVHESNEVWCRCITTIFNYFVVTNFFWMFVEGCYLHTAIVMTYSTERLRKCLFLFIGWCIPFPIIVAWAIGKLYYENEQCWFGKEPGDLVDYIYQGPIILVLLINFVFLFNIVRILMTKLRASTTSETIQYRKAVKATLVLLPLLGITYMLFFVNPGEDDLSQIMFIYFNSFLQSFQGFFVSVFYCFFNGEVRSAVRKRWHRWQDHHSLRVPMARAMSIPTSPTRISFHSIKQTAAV
Method in brief: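 CHO-K1 cells stably expressing human CRHR2 were thawed from frozen stocks immediately before use and assayed in suspension with agonist peptides. cAMP was measured by time-resolved FRET in a competitive immunoassay between cryptate-labelled anti-cAMP antibody and d2-labelled cAMP. EC50 values came from nonlinear regression, sigmoid variable-slope fit.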

[2] = molecular target: T2, hCRHR1 (Homo sapiens, UniProt P34998); assay: HTRF cAMP assay, determination of hCRHR1 potency (peptide libraries 5 conc., purified peptides 11 conc.); type: cell-based
T2 sequence (P34998 24-415): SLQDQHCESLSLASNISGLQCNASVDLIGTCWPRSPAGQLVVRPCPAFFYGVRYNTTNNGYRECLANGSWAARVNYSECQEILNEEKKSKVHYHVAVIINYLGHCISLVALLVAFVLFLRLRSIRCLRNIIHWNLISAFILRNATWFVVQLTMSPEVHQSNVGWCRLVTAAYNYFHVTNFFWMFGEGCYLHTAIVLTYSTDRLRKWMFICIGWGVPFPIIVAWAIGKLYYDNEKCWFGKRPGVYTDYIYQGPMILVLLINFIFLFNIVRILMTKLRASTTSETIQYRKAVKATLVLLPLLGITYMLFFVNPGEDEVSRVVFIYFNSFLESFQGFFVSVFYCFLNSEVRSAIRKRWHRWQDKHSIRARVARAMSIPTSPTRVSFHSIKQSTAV
Method in brief: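 CHO-K1 cells stably expressing human CRHR1, thawed from frozen stocks just before use, were stimulated in suspension with agonist peptides. cAMP was measured by HTRF competitive immunoassay (cryptate anti-cAMP antibody vs d2-cAMP).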

[3] = Table 3, matched molecular pairs X^38 L vs Nle, peptide library of Example 4, read-out: hCRHR2 pEC50 (converted)
[4] = Table 3, matched molecular pairs X^38 L vs Nle, peptide library of Example 4, read-out: hCRHR1 pEC50 (converted)
[5] = Table 4, library peptides having X^38 = Nle, read-out: hCRHR2 pEC50 (converted)
[6] = Table 4, library peptides having X^38 = Nle, read-out: hCRHR1 pEC50 (converted)

EC50 [1, 3] | EC50 [2, 4] | EC50 [1, 5] | EC50 [2, 6] | Compound | other results
0.2 nM | 251 nM |  |  | CCCC[C@H](NC(=O)[C@@H](NC(=O)[C@H](CCC(=O)O)NC(=O)[C@H](C)NC(=O)[C@H](CC(N)=O)NC(=O)[C@@H](NC(=O)[C@H](CCCCNC(=O)COCCOCCNC(=O)COCCOCCNC(=O)CC[C@H](NC(=O)CC[C@H](NC(=O)CCCCCCCCCCCCCCCCCCC(=O)O)C(=O)O)C(=O)O)NC(=O)[C@H](C)NC(=O)[C@H](CCC(N)=O)NC(=O)[C@H](CCC(=O)O)NC(=O)[C@H](CCCNC(=N)N)NC(=O)[C@H](C)NC(=O)[C@H](CO)NC(=O)[C@H](CCC(=O)O)NC(=O)[C@H](C)NC(=O)[C@H](CCCNC(=N)N)NC(=O)[C@H](C)NC(=O)[C@H](CCC(N)=O)NC(=O)[C@H](CCC(=O)O)NC(=O)[C@H](CC(C)C)NC(=O)[C@H](CC(C)C)NC(=O)[C@@H](NC(=O)[C@H](CCC(N)=O)NC(=O)[C@H](CC(C)C)NC(=O)[C@H](CC(C)C)NC(=O)CNC(=O)[C@@H](NC(=O)[C@@H]1CCCN1C(=O)[C@@H](NC(=O)[C@H](CC(=O)O)NC(=O)[C@H](CC(C)C)NC(=O)[C@H](CO)NC(=O)[C@H](CC(C)C)NC(=O)[C@@H](NC(=O)[C@@H](N)[C@@H](C)CC)C(C)C)C(C)C)[C@@H](C)CC)[C@@H](C)CC)[C@@H](C)O)[C@@H](C)CC)C(=O)N[C@@H](C)C(=O)N[C@@H](CCC(=O)O)C(=O)N[C@H](C(N)=O)C(C)C [SEQ ID NO: 42] (H-IVLSLDVPIGLLQILLEQARAESAREQAK([AEEA-AEEA-γGlu-γGlu-C20 diacid])TNAEI[Nle]AEV-NH2) | 
 |  | 0.00501 nM | 794 nM | CCCC[C@H](NC(=O)[C@@H](NC(=O)[C@H](CCC(=O)O)NC(=O)[C@H](C)NC(=O)[C@H](CC(N)=O)NC(=O)C(C)(C)NC(=O)[C@H](CCCCNC(=O)COCCOCCNC(=O)COCCOCCNC(=O)CC[C@H](NC(=O)CC[C@H](NC(=O)CCCCCCCCCCCCCCCCCCC(=O)O)C(=O)O)C(=O)O)NC(=O)[C@H](C)NC(=O)[C@H](CCC(N)=O)NC(=O)[C@H](CCC(=O)O)NC(=O)[C@H](CCCNC(=N)N)NC(=O)[C@H](C)NC(=O)[C@H](C)NC(=O)[C@H](CCCNC(=N)N)NC(=O)[C@H](C)NC(=O)[C@H](CCCNC(=N)N)NC(=O)[C@H](C)NC(=O)[C@H](CCC(N)=O)NC(=O)CNC(=O)[C@H](CC(C)C)NC(=O)[C@H](CC(C)C)NC(=O)[C@@H](NC(=O)[C@H](CCC(N)=O)NC(=O)[C@H](CC(C)C)NC(=O)[C@H](CC(C)C)NC(=O)CNC(=O)[C@@H](NC(=O)[C@@H]1CCCN1C(=O)[C@@H](NC(=O)[C@H](CC(=O)O)NC(=O)[C@H](CC(C)C)NC(=O)[C@H](CO)NC(=O)[C@H](CC(C)C)NC(=O)[C@@H](NC(=O)[C@@H](NC)[C@@H](C)CC)C(C)C)C(C)C)[C@@H](C)CC)[C@@H](C)CC)[C@@H](C)CC)C(=O)N[C@@H](C)C(=O)N[C@@H](CCC(=O)O)C(=O)N[C@H](C(N)=O)C(C)C [compound 123] (H-[NMeI]VLSLDVPIGLLQILLGQARARAAREQAK([AEEA-AEEA-γGlu-γGlu-C20 diacid])[Aib]NAEI[Nle]AEV-NH2) | 
 |  | 0.00631 nM | 251 nM | CCCC[C@H](NC(=O)[C@@H](NC(=O)[C@H](CCC(=O)O)NC(=O)[C@H](C)NC(=O)[C@H](CC(N)=O)NC(=O)C(C)(C)NC(=O)[C@H](CCCCNC(=O)COCCOCCNC(=O)COCCOCCNC(=O)CC[C@H](NC(=O)CC[C@H](NC(=O)CCCCCCCCCCCCCCCCCCC(=O)O)C(=O)O)C(=O)O)NC(=O)[C@H](C)NC(=O)[C@H](CCC(N)=O)NC(=O)[C@H](CCC(=O)O)NC(=O)[C@H](CCCNC(=N)N)NC(=O)[C@H](C)NC(=O)[C@H](C)NC(=O)[C@H](CCCNC(=N)N)NC(=O)[C@H](C)NC(=O)[C@H](CCCNC(=N)N)NC(=O)[C@H](C)NC(=O)[C@H](CCC(N)=O)NC(=O)[C@H](CCC(=O)O)NC(=O)[C@H](CC(C)C)NC(=O)[C@H](CC(C)C)NC(=O)[C@@H](NC(=O)[C@H](CCC(N)=O)NC(=O)[C@H](CC(C)C)NC(=O)[C@H](CC(C)C)NC(=O)CNC(=O)[C@@H](NC(=O)[C@@H]1CCCN1C(=O)[C@@H](NC(=O)[C@H](CC(=O)O)NC(=O)[C@H](CC(C)C)NC(=O)[C@H](CO)NC(=O)[C@H](CC(C)C)NC(=O)[C@@H](NC(=O)[C@@H](NC)[C@@H](C)CC)C(C)C)C(C)C)[C@@H](C)CC)[C@@H](C)CC)[C@@H](C)CC)C(=O)N[C@@H](C)C(=O)N[C@@H](CCC(=O)O)C(=O)N[C@H](C(N)=O)C(C)C [compound 124] (H-[NMeI]VLSLDVPIGLLQILLEQARARAAREQAK([AEEA-AEEA-γGlu-γGlu-C20 diacid])[Aib]NAEI[Nle]AEV-NH2) | Selectivity hCRHR1 EC50/hCRHR2 EC50 ([1]; Table 4, ratio, or comparison with Ref. 1 (SEQ ID NO: 205) / Ref. 2 (SEQ ID NO: 124)): 40378
0.126 nM | 1580 nM |  |  | CCCC[C@H](NC(=O)[C@@H](NC(=O)[C@H](CCC(=O)O)NC(=O)[C@H](C)NC(=O)[C@H](CC(N)=O)NC(=O)[C@@H](NC(=O)[C@H](CCCCNC(=O)COCCOCCNC(=O)COCCOCCNC(=O)CC[C@H](NC(=O)CC[C@H](NC(=O)CCCCCCCCCCCCCCCCCCC(=O)O)C(=O)O)C(=O)O)NC(=O)[C@H](C)NC(=O)[C@H](CCC(N)=O)NC(=O)[C@H](CCC(=O)O)NC(=O)[C@H](CCCNC(=N)N)NC(=O)[C@H](C)NC(=O)[C@H](CCC(N)=O)NC(=O)[C@H](CCCNC(=N)N)NC(=O)[C@H](C)NC(=O)[C@H](CCCNC(=N)N)NC(=O)[C@H](C)NC(=O)[C@H](CCC(N)=O)NC(=O)[C@H](CCC(=O)O)NC(=O)[C@H](CC(C)C)NC(=O)[C@H](CC(C)C)NC(=O)[C@@H](NC(=O)[C@H](CCC(N)=O)NC(=O)[C@H](CC(C)C)NC(=O)[C@H](CC(C)C)NC(=O)CNC(=O)[C@@H](NC(=O)[C@@H]1CCCN1C(=O)[C@@H](NC(=O)[C@H](CC(=O)O)NC(=O)[C@H](CC(C)C)NC(=O)[C@H](CO)NC(=O)[C@H](CC(C)C)NC(=O)[C@@H](NC(=O)[C@@H](N)[C@@H](C)CC)C(C)C)C(C)C)[C@@H](C)CC)[C@@H](C)CC)[C@@H](C)O)[C@@H](C)CC)C(=O)N[C@@H](C)C(=O)N[C@@H](CCC(=O)O)C(=O)N[C@H](C(N)=O)[C@@H](C)CC [SEQ ID NO: 30] (H-IVLSLDVPIGLLQILLEQARARQAREQAK([AEEA-AEEA-γGlu-γGlu-C20 diacid])TNAEI[Nle]AEI-NH2) | 
 |  |  |  | CCCC[C@H](NC(=O)[C@@H](NC(=O)[C@H](CCC(=O)O)NC(=O)[C@H](C)NC(=O)[C@H](CC(N)=O)NC(=O)[C@@H](NC(=O)[C@H](CCCCNC(=O)COCCOCCNC(=O)COCCOCCNC(=O)CC[C@H](NC(=O)CC[C@H](NC(=O)CCCCCCCCCCCCCCCCCCC(=O)O)C(=O)O)C(=O)O)NC(=O)[C@H](C)NC(=O)[C@H](CCCNC(=N)N)NC(=O)[C@H](CCC(=O)O)NC(=O)[C@H](CCCNC(=N)N)NC(=O)[C@H](C)NC(=O)[C@H](C)NC(=O)[C@H](CCC(N)=O)NC(=O)[C@H](C)NC(=O)[C@H](CCCNC(=N)N)NC(=O)[C@H](C)NC(=O)[C@H](CCC(N)=O)NC(=O)[C@H](CCC(=O)O)NC(=O)[C@H](CC(C)C)NC(=O)[C@H](CC(C)C)NC(=O)[C@@H](NC(=O)[C@H](CCC(N)=O)NC(=O)[C@H](CC(C)C)NC(=O)[C@H](CC(C)C)NC(=O)CNC(=O)[C@@H](NC(=O)[C@@H]1CCCN1C(=O)[C@@H](NC(=O)[C@H](CC(=O)O)NC(=O)[C@H](CC(C)C)NC(=O)[C@H](CO)NC(=O)[C@H](CC(C)C)NC(=O)[C@@H](NC(=O)[C@@H](N)[C@@H](C)CC)C(C)C)C(C)C)[C@@H](C)CC)[C@@H](C)CC)[C@@H](C)O)[C@@H](C)CC)C(=O)N[C@@H](C)C(=O)N[C@@H](CCC(=O)O)C(=O)N[C@H](C(N)=O)C(C)C [compound 49] (H-IVLSLDVPIGLLQILLEQARAQAARERAK([AEEA-AEEA-γGlu-γGlu-C20 diacid])TNAEI[Nle]AEV-NH2) | EC50 ([1]; library peptides, matched molecular pairs L vs Nle in position X^38, read-out: Potency hCRHR2 pEC50 (converted)): 0.126 nM; EC50 ([2]; library peptides, matched molecular pairs L vs Nle in position X^38, read-out: Potency hCRHR1 pEC50 (converted)): 3160 nM

From patent EP4810052A2, “HCRHR2 SELECTIVE POLYPEPTIDES” (Gubra A/S, priority 2023, dated 2026)
